Test results: the OligoGym collection
These antisense oligonucleotides have a phosphorothioate backbone; sugars and methylation of C are not fully specified.

Molecular target: TNFRSF1A
Settings: ASO
Further: test concentration or dose not given here.

First: AGGTGGTTTTCTGAAGCG
Second: AGTAGGTTCCTTTGTGGC
The remaining target (mRNA or protein) (fraction of control) of the first is higher: no less than 1 for the first, 0.54 for the second.

Compared with ATAGCGTCCCTCATCCTC, ATCCTCGCAAACCACCCA is higher in remaining target (mRNA or protein) (fraction of control): 0.66 for the first, 0.71 for the second.

ATCTGAGAAGACTGGGCG and ATTATTTTGAGGGTGGAT cannot be ordered by remaining target (mRNA or protein) (fraction of control): no less than 1 for the first, no less than 1 for the second.

Going from CAAAGACCAAAGAAAATG to CAATGAAGAGGAGGGATA, the remaining target (mRNA or protein) (fraction of control) rises from 0.71 to 0.79.

Compared with CACCAGCGGCAGCAGCAG, CACCTGACCCATTTCCTT is lower in remaining target (mRNA or protein) (fraction of control): 0.79 for the first, 0.54 for the second.

Compared with CAGGAGCACCAGCGGCAG, CAGTCCGTATCCTGCCCC is higher in remaining target (mRNA or protein) (fraction of control): 0.54 for the first, 0.74 for the second.

First: CATTTCCTTTCGGCATTT
Second: CATTTGGGCTCAGGGCAG
The remaining target (mRNA or protein) (fraction of control) of the first is lower: 0.87 for the first, 0.91 for the second.

Compared with CCATTGAGGCAGAGGCTG, CCGCCTCCAGGTCGCCAG is higher in remaining target (mRNA or protein) (fraction of control): 0.52 for the first, no less than 1 for the second.

First: CCGTTGGTAGCGATACAT
Second: CGCAAACCACCCACTCAG
The remaining target (mRNA or protein) (fraction of control) of the first is higher: 0.7 for the first, 0.49 for the second.

Going from CGCAAAGTTGGGACAGTC to CTACAGGAGACACACTCG, the remaining target (mRNA or protein) (fraction of control) rises from 0.7 to 0.72.

Going from CTCAGGGACGAACCAGGG to CTCAGGGCAGTGTGGCAG, the remaining target (mRNA or protein) (fraction of control) falls from 0.97 to 0.39.

Compared with CTGTCCTCCCACTTCTGA, CTTACAGTTACTACAGGA is lower in remaining target (mRNA or protein) (fraction of control): 0.84 for the first, 0.79 for the second.

First: CTTAGTAGTAGTTCCTTC
Second: GAAGCCTGGAGTGGGACT
The remaining target (mRNA or protein) (fraction of control) of the first is higher: 0.85 for the first, 0.52 for the second.

First: GACCCATTTCCTTTCGGC
Second: GCAGAGGGCACAGGAGTG
The remaining target (mRNA or protein) (fraction of control) of the first is lower: 0.74 for the first, 0.76 for the second.

First: GCAGCAGCAGGTCAGGCA
Second: GCAGCCCAGCAGGTCCAT
The remaining target (mRNA or protein) (fraction of control) of the first is lower: 0.63 for the first, 0.68 for the second.

Compared with GCAGGTCAGGCACGGTGG, GCAGTGTGGCAGCGGCAG is lower in remaining target (mRNA or protein) (fraction of control): 0.84 for the first, 0.47 for the second.

First: GCCAAGTTTCTATTAGTG
Second: GCCTGGACAGTCATTGTA
The remaining target (mRNA or protein) (fraction of control) of the first is lower: 0.9 for the first, no less than 1 for the second.

Compared with GCTCCTGCTTGCCCCTGC, GCTTGTCCAGGCAGAGGG is higher in remaining target (mRNA or protein) (fraction of control): 0.57 for the first, 0.82 for the second.

Compared with GCTTTTCTTACAGTTACT, GGACTGAAGCCCAGGGTG is lower in remaining target (mRNA or protein) (fraction of control): 0.9 for the first, 0.88 for the second.

Going from GGTACTGGTTCTTCCTGC to GGTGACAGTTGAGGGTTG, the remaining target (mRNA or protein) (fraction of control) rises from 0.86 to 0.92.

Going from GGTTGAGACTCGGGCATA to GGTTTTCTGAAGCGGTGA, the remaining target (mRNA or protein) (fraction of control) rises from 0.6 to 0.83.

First: GTCAGGCACGGTGGAGAG
Second: GTCCAGGCAGAGGGCACA
The remaining target (mRNA or protein) (fraction of control) of the first is higher: no less than 1 for the first, 0.79 for the second.

First: GTCTGAGGTGGTTTTCTG
Second: GTGCCACCTCTCTGCGGG
The remaining target (mRNA or protein) (fraction of control) of the first is lower: 0.66 for the first, no less than 1 for the second.

Going from GTGGAACTGGGCACGGGA to GTTAGCACCAAGTAGGCG, the remaining target (mRNA or protein) (fraction of control) falls from 0.96 to 0.89.

Going from GTTCCTTTGTGGCACTTG to TAACATTCTCAATCTGGG, the remaining target (mRNA or protein) (fraction of control) rises from 0.88 to no less than 1.

Compared with TATATTCCCACCAACAGC, TCCAGGCTTTTCTTACAG is higher in remaining target (mRNA or protein) (fraction of control): 0.75 for the first, no less than 1 for the second.

First: TCCCCTCCTCTCTGCTTT
Second: TCCGTGCTCGCCCCTGCC
The remaining target (mRNA or protein) (fraction of control) of the first is higher: 0.95 for the first, 0.81 for the second.

First: TCCTCCAGGCAGCCCAGC
Second: TCGATTTCCCACAAACAA
The remaining target (mRNA or protein) (fraction of control) of the first is lower: 0.59 for the first, 0.99 for the second.

First: TCGTGGTCGCTCAGCCCT
Second: TCTGAAGCGGTGAAGGAG
The remaining target (mRNA or protein) (fraction of control) of the first is lower: 0.72 for the first, no less than 1 for the second.

Going from TCTTCTCCCTGTCCCCTA to TGAAGGTGGAACTGGGCA, the remaining target (mRNA or protein) (fraction of control) falls from 0.87 to 0.73.

Compared with TGAGGGTTGAGACTCGGG, TGCCTTAGGACAGTTCAG is lower in remaining target (mRNA or protein) (fraction of control): 0.98 for the first, 0.8 for the second.

First: TTAAACCAATGAAGAGGA
Second: TTCTCTGGACTGAGGCTC
The remaining target (mRNA or protein) (fraction of control) of the first is lower: 0.72 for the first, 0.81 for the second.

First: TTGGGCTCAGGGCAGTGT
Second: TTGTTCCGTGCTCGCCCC
The remaining target (mRNA or protein) (fraction of control) of the first is higher: no less than 1 for the first, 0.59 for the second.

TTTTCACTCCAATAATGC was tested, and the remaining target (mRNA or protein) (fraction of control) was no less than 1.

Molecular target: GNA11
Settings: ASO

Compared with AAGCCGCGCTTGTCCTCC, AAGTAGTCCACCAGGTGC is higher in remaining target (mRNA or protein) (fraction of control): 0.44 for the first, no less than 1 for the second.

Sequence ACCAGATTGTACTCCTTC has a remaining target (mRNA or protein) (fraction of control) of no less than 1.
